Assay results from the NIST ThermoML archive (doi:10.1016/j.tca.2004.11.034).
Numbers after ± are expanded uncertainties.

Experiments:
[1] = xn = mol fraction of the nth substance listed; settings: 101.33 kPa, Liquid; for speed of sound: Anton Paar DSA 48; for mass density: Vibrating tube method
[2] = excess molar enthalpy (molar enthalpy of mixing); xn = mol fraction of the nth substance listed; settings: 298.15 K, 101.33 kPa, Liquid, Flow calorimetry
[3] = 101.33 kPa, Liquid; for speed of sound: Anton Paar DSA 48; for mass density: Vibrating tube method

CC1CCCO1 (configuration not stated) [2-methyltetrahydrofuran] + CCCCCl
[1]
Settings	mass density, 298.15 K [kg/m3]	mass density, 313.15 K [kg/m3]	speed of sound, 298.15 K [m/s]	speed of sound, 313.15 K [m/s]
x1 = 0.0507	–	862.5 ± 0.45	–	1061 ± 1.4
x1 = 0.0535	879.23 ± 0.46	–	1123.2 ± 1.4	–
x1 = 0.0972	878.04 ± 0.46	–	1126.8 ± 1.4	–
x1 = 0.1022	–	861.16 ± 0.45	–	1065 ± 1.4
x1 = 0.1958	875.19 ± 0.45	–	1134.9 ± 1.4	–
x1 = 0.2014	–	858.46 ± 0.45	–	1072.6 ± 1.4
x1 = 0.2975	872.17 ± 0.45	–	1143.3 ± 1.4	–
x1 = 0.3019	–	855.6 ± 0.45	–	1080.3 ± 1.4
x1 = 0.4006	869.04 ± 0.45	–	1151.9 ± 1.4	–
x1 = 0.4047	–	852.6 ± 0.45	–	1088.5 ± 1.4
x1 = 0.5017	–	849.72 ± 0.44	–	1096.2 ± 1.4
x1 = 0.5031	865.88 ± 0.45	–	1160.5 ± 1.4	–
x1 = 0.6017	862.77 ± 0.45	–	1168.8 ± 1.4	–
x1 = 0.6026	–	846.65 ± 0.44	–	1104.3 ± 1.4
x1 = 0.6986	859.63 ± 0.45	–	1177 ± 1.4	–
x1 = 0.7017	–	843.55 ± 0.44	–	1112.3 ± 1.4
x1 = 0.7994	–	840.43 ± 0.44	–	1120.2 ± 1.4
x1 = 0.8009	856.27 ± 0.45	–	1185.6 ± 1.4	–
x1 = 0.9005	852.87 ± 0.45	–	1194.1 ± 1.4	–
x1 = 0.9009	–	837.13 ± 0.44	–	1128.3 ± 1.4
x1 = 0.9487	–	835.54 ± 0.44	–	1132.2 ± 1.4
x1 = 0.9489	851.15 ± 0.45	–	1198.2 ± 1.4	–

[2]
Settings	excess molar enthalpy [kcal/mol]
x1 = 0.057	-0.00669 ± 0.000239
x1 = 0.104	-0.0139 ± 0.000478
x1 = 0.201	-0.0277 ± 0.000478
x1 = 0.298	-0.038 ± 0.000717
x1 = 0.398	-0.0466 ± 0.000717
x1 = 0.497	-0.0502 ± 0.000717
x1 = 0.597	-0.0495 ± 0.000717
x1 = 0.696	-0.0449 ± 0.000717
x1 = 0.799	-0.0351 ± 0.000478
x1 = 0.901	-0.0203 ± 0.000478
x1 = 0.954	-0.0103 ± 0.000239

CC1CCCO1 (configuration not stated) [2-methyltetrahydrofuran]
[3]
Settings	mass density [kg/m3]	speed of sound [m/s]
298.15 K	849.2 ± 0.46	1202.6 ± 1.4
313.15 K	833.88 ± 0.45	–
333.15 K	–	1136.2 ± 1.4

CCCCCl [1-chlorobutane]
[3]
Settings	mass density [kg/m3]	speed of sound [m/s]
298.15 K	880.69 ± 0.45	1118.8 ± 1.4
313.15 K	863.86 ± 0.45	–
333.15 K	–	1057.1 ± 1.4

CCC(C)Cl (configuration not stated) [2-chlorobutane]
[3]
Settings	mass density [kg/m3]	speed of sound [m/s]
298.15 K	867.37 ± 0.45	1066.8 ± 1.4
313.15 K	850.16 ± 0.45	–
333.15 K	–	1006.9 ± 1.4
